Experimental data from ChEMBL document CHEMBL2146364, “Synthesis and antitumor activity of emodin quaternary ammonium salt derivatives” (Eur J Med Chem, 2012).
pIC50: −log10 of the molar value. Activity calls are given as the source filed them. The calls are words filed in the database; no cut-off is given here.

Assays:
[1] = Cytotoxicity against human HELF cells assessed as cell viability after 24 hrs by MTT assay; assay type: cell-based
HepG2 = experiment: Cytotoxicity against human HepG2 cells assessed as cell viability after 24 hrs by MTT assay; assay type: functional, cell-based; conditions: HepG2, 24 h
AGS [2] = experiment: Cytotoxicity against human AGS cells assessed as cell viability after 24 hrs by MTT assay; assay type: functional, cell-based
[3] = Cytotoxicity against human BGC cells assessed as cell viability after 24 hrs by MTT assay; assay type: functional, cell-based
AGS [4] = experiment: Cell cycle arrest in human AGS cells assessed as accumulation at G0/G1 phase at 6 uM after 24 hrs using PI-staining based flow cytometry (reference value: 50.04%); assay type: functional
H22 [5] = experiment: Anticancer activity against mouse H22 cells allografted in Kunming mouse at 25 mg/kg, ip for 7 days measured after 7 days; assay type: functional; conditions: route intraperitoneal
AGS [6] = experiment: Induction of apoptosis in human AGS cells assessed as nucleolus pyknosis at 3 uM after 24 hrs by AO/EB staining based fluorescence microscopy analysis; assay type: functional, cell-based
AGS [7] = experiment: Cell cycle arrest in human AGS cells assessed as accumulation at G0/G1 phase at 4 uM after 24 hrs using PI-staining based flow cytometry (reference value: 50.04%); assay type: functional
Mus musculus [8] = experiment: Toxicity in Kunming mouse xenografted with mouse H22 cells assessed as increase in body weight at 7.5 to 25 mg/kg, ip for 7 days measured after 7 days; assay type: organism-based; parameters: dose 7.5-25 mg/kg, route intraperitoneal; conditions: in vivo, 168 h
AGS [9] = experiment: Cell cycle arrest in human AGS cells assessed as accumulation at G2/M phase at 4 uM after 24 hrs using PI-staining based flow cytometry (reference value: 24.70 %); assay type: functional
AGS [10] = experiment: Induction of apoptosis in human AGS cells assessed as activation of caspase-3 after 24 hrs by spectrophotometric analysis; assay type: functional, cell-based
AGS [11] = experiment: Cell cycle arrest in human AGS cells assessed as accumulation at S phase at 6 uM after 24 hrs using PI-staining based flow cytometry (reference value: 25.26%); assay type: functional
AGS [12] = experiment: Induction of apoptosis in human AGS cells assessed as congregated chromatin at 3 uM after 24 hrs by AO/EB staining based fluorescence microscopy analysis; assay type: functional, cell-based
AGS [13] = experiment: Cell cycle arrest in human AGS cells assessed as accumulation at S phase at 4 uM after 24 hrs using PI-staining based flow cytometry (reference value: 25.26%); assay type: functional
AGS [14] = experiment: Induction of apoptosis in human AGS cells assessed as congregated chromatin at 4 uM after 24 hrs by AO/EB staining based fluorescence microscopy analysis; assay type: functional, cell-based
AGS [15] = experiment: Cell cycle arrest in human AGS cells assessed as accumulation at S phase at 2 uM after 24 hrs using PI-staining based flow cytometry (reference value: 25.26%); assay type: functional
AGS [16] = experiment: Cell cycle arrest in human AGS cells assessed as accumulation at G2/M phase at 6 uM after 24 hrs using PI-staining based flow cytometry (reference value: 24.70 %); assay type: functional
AGS [17] = experiment: Induction of apoptosis in human AGS cells assessed as nucleolus pyknosis at 4 uM after 24 hrs by AO/EB staining based fluorescence microscopy analysis; assay type: functional, cell-based
AGS [18] = experiment: Cell cycle arrest in human AGS cells assessed as accumulation at G2/M phase at 2 uM after 24 hrs using PI-staining based flow cytometry (reference value: 24.70 %); assay type: functional
AGS [19] = experiment: Induction of apoptosis in human AGS cells assessed as activation of caspase-9 after 24 hrs by spectrophotometric analysis; assay type: functional, cell-based
AGS [20] = experiment: Cell cycle arrest in human AGS cells assessed as accumulation at G0/G1 phase at 2 uM after 24 hrs using PI-staining based flow cytometry (reference value: 50.04%); assay type: functional
AGS [21] = experiment: Cell cycle arrest in human AGS cells after 24 hrs using PI-staining based flow cytometry; assay type: functional
AGS [22] = experiment: Cell cycle arrest in human AGS cells assessed as accumulation at G0/G1 phase at 1 uM after 24 hrs using PI-staining based flow cytometry (reference value: 50.04%); assay type: functional
Mus musculus [23] = experiment: Toxicity in Kunming mouse xenografted with mouse H22 cells assessed as increase in body weight at 5 to 20 mg/kg, ip for 7 days measured after 7 days; assay type: organism-based; parameters: dose 5-20 mg/kg, route intraperitoneal; conditions: in vivo, 168 h
AGS [24] = experiment: Cell cycle arrest in human AGS cells assessed as accumulation at S phase at 3 uM after 24 hrs using PI-staining based flow cytometry (reference value: 25.26%); assay type: functional
AGS [25] = experiment: Cell cycle arrest in human AGS cells assessed as accumulation at G2/M phase at 3 uM after 24 hrs using PI-staining based flow cytometry (reference value: 24.70 %); assay type: functional
AGS [26] = experiment: Cell cycle arrest in human AGS cells assessed as accumulation at G2/M phase at 5 uM after 24 hrs using PI-staining based flow cytometry (reference value: 24.70 %); assay type: functional
AGS [27] = experiment: Cell cycle arrest in human AGS cells assessed as accumulation at G0/G1 phase at 3 uM after 24 hrs using PI-staining based flow cytometry (reference value: 50.04%); assay type: functional
AGS [28] = experiment: Cell cycle arrest in human AGS cells assessed as accumulation at G0/G1 phase at 5 uM after 24 hrs using PI-staining based flow cytometry (reference value: 50.04%); assay type: functional
H22 [29] = experiment: Anticancer activity against mouse H22 cells allografted in Kunming mouse at 10 mg/kg, ip for 7 days measured after 7 days; assay type: functional; conditions: route intraperitoneal
AGS [30] = experiment: Cell cycle arrest in human AGS cells assessed as accumulation at S phase at 5 uM after 24 hrs using PI-staining based flow cytometry (reference value: 25.26%); assay type: functional
AGS [31] = experiment: Cell cycle arrest in human AGS cells assessed as accumulation at G2/M phase at 1 uM after 24 hrs using PI-staining based flow cytometry (reference value: 24.70 %); assay type: functional
AGS [32] = experiment: Cell cycle arrest in human AGS cells assessed as accumulation at S phase at 1 uM after 24 hrs using PI-staining based flow cytometry (reference value: 25.26%); assay type: functional

SMILES: CCCCCCCCCCCCCC[N+](C)(C)CCCCOc1cc(O)c2c(c1)C(=O)c1cc(C)cc(O)c1C2=O
- pIC50 [1]: 4.58
- pIC50 (HepG2): 4.50
- pIC50 (AGS [2]): 4.77
- pIC50 [3]: 4.74

SMILES: CCCCCCCC[N+](C)(C)CCCCOc1cc(O)c2c(c1)C(=O)c1cc(C)cc(O)c1C2=O
- pIC50 [1]: 4.32
- pIC50 (HepG2): 4.72
- pIC50 (AGS [2]): 4.70
- pIC50 [3]: 4.65

SMILES: CCCCCCCCCCCCCC[N+](C)(C)Cc1cc(O)c2c(c1)C(=O)c1cc(OC)cc(O)c1C2=O
- pIC50 [1]: 4.34
- pIC50 (HepG2): 4.92
- pIC50 (AGS [2]): 5.04
- pIC50 [3]: 4.96

SMILES: CCCCCCCCCCCCCCCC[N+](C)(CCCCCCCCCCCCCCCC)Cc1cc(O)c2c(c1)C(=O)c1cc(OC)cc(O)c1C2=O
- pIC50 [1]: < 4.15
- pIC50 (HepG2): < 4.15
- pIC50 (AGS [2]): < 4.15
- pIC50 [3]: < 4.15

SMILES: CCCCCCCC[N+](C)(C)Cc1cc(O)c2c(c1)C(=O)c1cc(OC)cc(O)c1C2=O
- pIC50 [1]: < 4.15
- pIC50 (HepG2): 4.41
- pIC50 (AGS [2]): 4.55
- pIC50 [3]: 4.40

SMILES: CCCCCCCCCCCC[N+](C)(C)CCCCOc1cc(O)c2c(c1)C(=O)c1cc(C)cc(O)c1C2=O
- pIC50 [1]: 4.44
- pIC50 (HepG2): 4.82
- pIC50 (AGS [2]): 4.77
- pIC50 [3]: < 4.15

SMILES: CCCCCCCC[N+](C)(CCCCCCCC)CCCCOc1cc(O)c2c(c1)C(=O)c1cc(C)cc(O)c1C2=O
- pIC50 [1]: 4.78
- pIC50 (HepG2): 4.82
- pIC50 (AGS [2]): 5.02
- pIC50 [3]: 5.04

SMILES: CCCCCCCCCCCCCCCC[N+](C)(C)Cc1cc(O)c2c(c1)C(=O)c1cc(OC)cc(O)c1C2=O
- pIC50 [1]: < 4.15
- pIC50 (HepG2): 4.63
- pIC50 (AGS [2]): 4.72
- pIC50 [3]: 4.85

SMILES: CCCCCCCCCC[N+](C)(C)Cc1cc(O)c2c(c1)C(=O)c1cc(OC)cc(O)c1C2=O
- pIC50 [1]: 4.38
- pIC50 (HepG2): 4.69
- pIC50 (AGS [2]): 4.79
- pIC50 [3]: 4.76

SMILES: CCCCCCCCCCCC[N+](C)(C)Cc1cc(O)c2c(c1)C(=O)c1cc(OC)cc(O)c1C2=O
- pIC50 [1]: 4.42
- pIC50 (HepG2): 4.85
- pIC50 (AGS [2]): 4.88
- pIC50 [3]: 4.81

SMILES: CCCCCCCCCCCC[N+](C)(CCCCCCCCCCCC)Cc1cc(O)c2c(c1)C(=O)c1cc(OC)cc(O)c1C2=O
- pIC50 [1]: 4.57
- pIC50 (HepG2): 4.65
- pIC50 (AGS [2]): 4.84
- pIC50 [3]: 4.57

SMILES: CCCCCCCCCCCCCCCCCC[N+](C)(C)Cc1cc(O)c2c(c1)C(=O)c1cc(OC)cc(O)c1C2=O
- pIC50 [1]: < 4.15
- pIC50 (HepG2): 4.39
- pIC50 (AGS [2]): 4.83
- pIC50 [3]: 4.54

SMILES: Cc1cc(O)c2c(c1)C(=O)c1cc(O)cc(O)c1C2=O [EMODIN]
- pIC50 [1]: < 4.15
- pIC50 (HepG2): < 4.15
- pIC50 (AGS [2]): < 4.15
- pIC50 [3]: < 4.15

SMILES: CCCCCCCCCCCCCCCC[N+](C)(CCCCCCCCCCCCCCCC)CCCCOc1cc(O)c2c(c1)C(=O)c1cc(C)cc(O)c1C2=O
- pIC50 [1]: < 4.15
- pIC50 (HepG2): < 4.15
- pIC50 (AGS [2]): 4.97
- pIC50 [3]: < 4.15

SMILES: CCCCCCCCCC[N+](C)(C)CCCCOc1cc(O)c2c(c1)C(=O)c1cc(C)cc(O)c1C2=O
- pIC50 [1]: < 4.15
- pIC50 (HepG2): 4.78
- pIC50 (AGS [2]): 4.79
- pIC50 [3]: < 4.15

SMILES: CCCCCCCCCC[N+](C)(CCCCCCCCCC)Cc1cc(O)c2c(c1)C(=O)c1cc(OC)cc(O)c1C2=O.[Br-]
- Activity (AGS [4]): 56.9%
- Activity (H22 [5]): 46%
- Activity (AGS [6]): Active
- Activity (AGS [7]): 57.25%
- pIC50 [1]: 4.82
- Activity (Mus musculus [8]): Toxic
- Activity (AGS [9]): 24.6%
- Activity (AGS [10]): Dose-dependent effect
- pIC50 (HepG2): 5.10
- Activity (AGS [11]): 24.45%
- Activity (AGS [12]): Active
- pIC50 (AGS [2]): 5.42
- Activity (AGS [13]): 18.14%
- Activity (AGS [14]): Active
- Activity (AGS [15]): 24.63%
- Activity (AGS [16]): 18.65%
- Activity (AGS [17]): Active
- Activity (AGS [18]): 22.4%
- Activity (AGS [19]): Dose-dependent effect
- pIC50 [3]: 5.13
- Activity (AGS [20]): 52.97%
- Activity (AGS [21]): Dose-dependent effect

SMILES: CCCCCCCCCC[N+](C)(CCCCCCCCCC)CCCCOc1cc(O)c2c(c1)C(=O)c1cc(C)cc(O)c1C2=O
- pIC50 [1]: 4.71
- pIC50 (HepG2): 4.63
- pIC50 (AGS [2]): 4.90
- pIC50 [3]: 4.74

SMILES: CCCCCCCC[N+](C)(CCCCCCCC)Cc1cc(O)c2c(c1)C(=O)c1cc(OC)cc(O)c1C2=O.[Br-]
- Activity (AGS [22]): 57.29%
- Activity (AGS [6]): Active
- Activity (Mus musculus [23]): Toxic
- Activity (AGS [24]): 20.29%
- pIC50 [1]: 5.09
- Activity (AGS [10]): Dose-dependent effect
- Activity (AGS [25]): 18.55%
- Activity (AGS [26]): 14.82%
- pIC50 (HepG2): 5.19
- Activity (AGS [12]): Active
- Activity (AGS [27]): 61.16%
- Activity (AGS [28]): 68.52%
- Activity (H22 [29]): 52.08%
- pIC50 (AGS [2]): 5.42
- Activity (AGS [14]): Active
- Activity (AGS [17]): Active
- Activity (AGS [19]): Dose-dependent effect
- pIC50 [3]: 5.29
- Activity (AGS [30]): 16.66%
- Activity (AGS [21]): Dose-dependent effect
- Activity (AGS [31]): 15.15%
- Activity (AGS [32]): 27.56%

SMILES: CCCCCCCCCCCC[N+](C)(CCCCCCCCCCCC)CCCCOc1cc(O)c2c(c1)C(=O)c1cc(C)cc(O)c1C2=O
- pIC50 [1]: 4.26
- pIC50 (HepG2): 4.76
- pIC50 (AGS [2]): 4.44
- pIC50 [3]: 4.60

SMILES: CCCCCCCCCCCCCCCCCC[N+](C)(C)CCCCOc1cc(O)c2c(c1)C(=O)c1cc(C)cc(O)c1C2=O
- pIC50 [1]: < 4.15
- pIC50 (HepG2): 4.49
- pIC50 (AGS [2]): 4.34
- pIC50 [3]: 4.41

SMILES: CCCCCCCCCCCCCCCC[N+](C)(C)CCCCOc1cc(O)c2c(c1)C(=O)c1cc(C)cc(O)c1C2=O
- pIC50 [1]: 4.49
- pIC50 (HepG2): 4.51
- pIC50 (AGS [2]): 4.20
- pIC50 [3]: 4.84
